# Experimental data published in PubChem BioAssay (NCI).
#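 These data come from cells grown in 96-well plates and exposed to compound for 48 hours at five concentrations. The concentration for 50% growth inhibition is given as GI50. TGI: concentration producing complete growth inhibition.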
# What was measured:
# Assay in all cases: growth of human tumour cells (NCI), 48 h
# [1] = test system: SN12C renal
# [2] = test system: NCI-H522 lung
# [3] = test system: SK-OV-3 ovarian
# [4] = test system: MOLT-4 leukemia
# [5] = test system: PC-3 prostate
# [6] = test system: HOP-92 NSCLC
# [7] = test system: SF-295 CNS
# [8] = test system: OVCAR-5 ovarian
# [9] = test system: NCI-H226 lung
# [10] = test system: SF-268 CNS
# [11] = test system: HT29 colon
# [12] = test system: MALME-3M melanoma
# [13] = test system: HCT-116 colon
# [14] = test system: TK-10 renal
# [15] = test system: MDA-MB-435
# [16] = test system: CCRF-CEM leukemia
# [17] = test system: 786-0 renal
# [18] = test system: CAKI-1 renal
# [19] = test system: HS 578T breast
# [20] = test system: KM12 colon
# [21] = test system: EKVX NSCLC
# [22] = test system: SNB-75 CNS
# [23] = test system: A549 NSCLC
# [24] = test system: DU-145 prostate
# [25] = test system: SK-MEL-28 melanoma
# [26] = test system: HCC-2998 colon
# [27] = test system: UO-31 renal
# [28] = test system: LOX IMVI melanoma
# [29] = test system: OVCAR-8 ovarian
# [30] = test system: BT-549 breast
# [31] = test system: SW-620 colon
# [32] = test system: RPMI-8226 leukemia
# [33] = test system: SF-539 CNS
# [34] = test system: MCF7 breast
# [35] = test system: MDA-MB-231 breast
# [36] = test system: HCT-15 colon
# [37] = test system: NCI-H23 lung
# [38] = test system: T-47D breast
# [39] = test system: COLO 205 colon
# [40] = test system: NCI-H460 lung
# [41] = test system: HL-60(TB) leukemia
# [42] = test system: IGROV1 ovarian
# [43] = test system: U251 CNS
# [44] = test system: OVCAR-4 ovarian
# [45] = test system: SK-MEL-5 melanoma
# [46] = test system: K-562 leukemia
# [47] = test system: SNB-19 CNS
# [48] = test system: A498 renal
# [49] = test system: HOP-62 NSCLC
# [50] = test system: NCI/ADR-RES ovarian
# [51] = test system: UACC-257 melanoma
# [52] = test system: M14 melanoma
smiles,measurement,setting,value
C#C[C@]1(O)CC[C@H]2[C@@H]3CC=C4c5sc(Nc6ccc(OC)nc6)nc5CC[C@]4(C)[C@H]3CC[C@@]21C,GI50,[1],2.22 µM
same,TGI,[1],7.61 µM
same,GI50,[2],1.43 µM
same,TGI,[2],3.02 µM
same,GI50,[3],1.26 µM
same,TGI,[3],6.16 µM
same,GI50,[4],0.39 µM
same,TGI,[4],2.41 µM
same,GI50,[5],0.739 µM
same,TGI,[5],4.92 µM
same,GI50,[6],1.03 µM
same,TGI,[6],2.95 µM
same,GI50,[7],0.302 µM
same,TGI,[7],1.23 µM
same,GI50,[8],2.49 µM
same,TGI,[8],15.1 µM
same,GI50,[9],2.02 µM
same,TGI,[9],13.4 µM
same,GI50,[10],2.01 µM
same,TGI,[10],17.4 µM
same,GI50,[11],1.31 µM
same,TGI,[11],3.24 µM
same,GI50,[12],1.54 µM
same,TGI,[12],3.21 µM
same,GI50,[13],1.13 µM
same,TGI,[13],2.49 µM
same,GI50,[14],2.28 µM
same,TGI,[14],4.81 µM
same,GI50,[15],1.84 µM
same,TGI,[15],4.9 µM
same,GI50,[16],0.805 µM
same,TGI,[16],6.24 µM
same,GI50,[17],0.413 µM
same,TGI,[17],1.97 µM
same,GI50,[18],1.28 µM
same,TGI,[18],3.76 µM
same,GI50,[19],0.231 µM
same,TGI,[19],1.61 µM
same,GI50,[20],2.1 µM
same,TGI,[20],12.2 µM
same,GI50,[21],1.6 µM
same,TGI,[21],21.3 µM
same,GI50,[22],0.37 µM
same,TGI,[22],3.9 µM
same,GI50,[23],2.2 µM
same,TGI,[23],18 µM
same,GI50,[24],2.01 µM
same,TGI,[24],10 µM
same,GI50,[25],1.5 µM
same,TGI,[25],3.72 µM
same,GI50,[26],1.7 µM
same,TGI,[26],3.81 µM
same,GI50,[27],0.83 µM
same,TGI,[27],2.13 µM
same,GI50,[28],1.15 µM
same,TGI,[28],2.79 µM
same,GI50,[29],1.8 µM
same,TGI,[29],5.46 µM
same,GI50,[30],0.944 µM
same,TGI,[30],2.89 µM
same,GI50,[31],1.49 µM
same,TGI,[31],3.4 µM
same,GI50,[32],0.222 µM
same,TGI,[32],1.19 µM
same,GI50,[33],0.366 µM
same,TGI,[33],2.15 µM
same,GI50,[34],0.789 µM
same,TGI,[34],2.54 µM
same,GI50,[35],1.71 µM
same,TGI,[35],9.34 µM
same,GI50,[36],1.07 µM
same,TGI,[36],8.28 µM
same,GI50,[37],1.65 µM
same,TGI,[37],4.47 µM
same,GI50,[38],1.47 µM
same,TGI,[38],3.78 µM
same,GI50,[39],1.78 µM
same,TGI,[39],3.37 µM
same,GI50,[40],1.92 µM
same,TGI,[40],5.89 µM
same,GI50,[41],0.493 µM
same,TGI,[41],3.71 µM
same,GI50,[42],2.04 µM
same,TGI,[42],7.4 µM
same,GI50,[43],0.654 µM
same,TGI,[43],2.81 µM
same,GI50,[44],3.51 µM
same,TGI,[44],> 100 µM
same,GI50,[45],1.93 µM
same,TGI,[45],4.54 µM
same,GI50,[46],0.907 µM
same,TGI,[46],12.8 µM
same,GI50,[47],1.36 µM
same,TGI,[47],68.8 µM
same,GI50,[48],0.769 µM
same,TGI,[48],5.88 µM
same,GI50,[49],1.66 µM
same,TGI,[49],8.8 µM
same,GI50,[50],2.36 µM
same,TGI,[50],> 100 µM
same,GI50,[51],1.55 µM
same,TGI,[51],3.18 µM
same,GI50,[52],1.47 µM
same,TGI,[52],3.47 µM
